One series concerns HIV-1IIIB. Description: HIV-1 antiviral assay (CPE reduction) in CEM-SS cells. The following applies: peptide 10 micrograms per ml; 6 days post-infection; MTS.
The subject of the next series is HCMV strain AD169. Put plainly: HCMV plaque reduction assay in MRC-5 cells. The format is cell-based. As to conditions: peptide 10 micrograms per ml, 7-10 days. An excerpt:
Ganciclovir was used as positive control.

The test system of series [1] is MRC-5 cells (human embryonal lung fibroblasts). Put plainly: Cytotoxicity testing in MRC-5 cells (CellTiter 96). The format is cell-based. The following applies: 6 days. As to the method:
For cytotoxicity testing, MRC-5 cells were seeded at 2,500 cells/well in 96 well plates using growth medium. […] The following day, peptide was added and tested in duplicates. After a 6 days incubation period, cell viability was measured using CellTiter 96 Solution (Promega). Plates were incubated for additional 4 hours at 37° C.

In the next series the test system is CEM-SS cells. Put plainly: Cytotoxicity (MTS cell viability) in HIV-1 assay. The following applies: peptide 10 micrograms per ml, MTS.

Consider three molecules from patent US20100204149A1, “USE OF OCTREOTIDE AS A THERAPEUTIC AGENT” (priority 2007, published 2010).

Consider `CC(C)(C)NC(=O)[C@@H]1CN(Cc2cccnc2)CCN1C[C@@H](O)C[C@@H](Cc1ccccc1)C(=O)N[C@H]1c2ccccc2C[C@H]1O` [Indinavir], for which the “% CPE reduction in HIV-1 infected CEM-SS cells” value in the series on HIV-1IIIB is listed as 100%.

With `Nc1nc(O)c2ncn(COC(CO)CO)c2n1` [Ganciclovir, reference compound], the “% plaque reduction” value with HCMV strain AD169 is 100%. Moreover, in series [1], the “% Cell viability” value is 100%. `Cc1cn([C@H]2C[C@H](N=[N+]=[N-])[C@@H](CO)O2)c(=O)[nH]c1=O` [AZT, reference compound]: the “% Cell viability” value in the series on CEM-SS cells amounted to 97%. In addition, the “% CPE reduction in HIV-1 infected CEM-SS cells” value in the series with HIV-1IIIB is given as 99%.
